Test results as given in ChEMBL document CHEMBL1201862, “PubChem BioAssay data set” (2004).
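These data come from cells grown in 96-well plates and exposed to compound for 48 hours at five concentrations. The concentration for 50% growth inhibition is given as GI50.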 Activity calls are given as the source filed them. No stated cut-off is given here; in the data, active = GI50 up to about 1.1 µM and inactive = higher.

What was measured:
Experiment in all cases: inhibition of tumour cell growth, NCI panel, 48 h
RPMI-8226 = test system: RPMI-8226
U-251 = test system: U-251
NCI-H460 = test system: NCI-H460
MDA-MB-435 = test system: MDA-MB-435
EKVX = test system: EKVX
IGROV-1 = test system: IGROV-1
HOP-92 = test system: HOP-92
SNB-19 = test system: SNB-19
HCT-15 = test system: HCT-15
SR = test system: SR
KM12 = test system: KM12
BT-549 = test system: BT-549
786-0 = test system: 786-0
SK-MEL-2 = test system: SK-MEL-2
MCF7 = test system: MCF7
CCRF-CEM = test system: CCRF-CEM
SF-268 = test system: SF-268
UACC-62 = test system: UACC-62
CAKI-1 = test system: CAKI-1
OVCAR-3 = test system: OVCAR-3
M14 = test system: M14
HOP-62 = test system: HOP-62
HL-60 = test system: HL-60
OVCAR-4 = test system: OVCAR-4
MOLT-4 = test system: MOLT-4
NCI-H23 = test system: NCI-H23
NCI-H522 = test system: NCI-H522
K562 = test system: K562
OVCAR-8 = test system: OVCAR-8
SN12C = test system: SN12C
SNB-75 = test system: SNB-75
HCC 2998 = test system: HCC 2998
DU-145 = test system: DU-145
PC-3 = test system: PC-3
RXF 393 = test system: RXF 393
OVCAR-5 = test system: OVCAR-5
HT-29 = test system: HT-29
UO-31 = test system: UO-31
SK-MEL-28 = test system: SK-MEL-28
SK-OV-3 = test system: SK-OV-3
SF-539 = test system: SF-539
HCT-116 = test system: HCT-116
ACHN = test system: ACHN
TK-10 = test system: TK-10
UACC-257 = test system: UACC-257
COLO 205 = test system: COLO 205
LOX IMVI = test system: LOX IMVI
NCI-H226 = test system: NCI-H226
A498 = test system: A498
MDA-MB-231 = test system: MDA-MB-231
SK-MEL-5 = test system: SK-MEL-5
NCI/ADR-RES = test system: NCI/ADR-RES
SF-295 = test system: SF-295
SW-620 = test system: SW-620
A549 = test system: A549
T47D = test system: T47D
MDA-N = test system: MDA-N
Hs-578T = test system: Hs-578T
Malme-3M = test system: Malme-3M

CCOC(=O)NNC1(SC)NC(=O)c2c(cc(Cl)oc2=O)O1 (stereo not given)
GI50 (RPMI-8226): 2.84 µM (inactive)
GI50 (U-251): 10.8 µM (inactive)
GI50 (NCI-H460): 8 µM (inactive)
GI50 (MDA-MB-435): 4.83 µM (inactive)
GI50 (EKVX): 6.85 µM (inactive)
GI50 (IGROV-1): 3.87 µM (inactive)
GI50 (HOP-92): 1.96 µM (inactive)
GI50 (SNB-19): 11.5 µM (inactive)
GI50 (HCT-15): 2.17 µM
GI50 (SR): 2.36 µM (inactive)
GI50 (KM12): 10.4 µM (inactive)
GI50 (BT-549): 4.37 µM (inactive)
GI50 (786-0): 1.92 µM (inactive)
GI50 (SK-MEL-2): 7.73 µM (inactive)
GI50 (MCF7): 1.91 µM (inactive)
GI50 (CCRF-CEM): 2.34 µM (inactive)
GI50 (SF-268): 3.49 µM (inactive)
GI50 (UACC-62): 5.97 µM (inactive)
GI50 (CAKI-1): 2.72 µM (inactive)
GI50 (OVCAR-3): 2.84 µM (inactive)
GI50 (M14): 3.37 µM (inactive)
GI50 (HOP-62): 11.3 µM (inactive)
GI50 (HL-60): 1.9 µM (inactive)
GI50 (OVCAR-4): 6.17 µM (inactive)
GI50 (MOLT-4): 2.67 µM (inactive)
GI50 (NCI-H23): 3.61 µM (inactive)
GI50 (NCI-H522): 2.12 µM (inactive)
GI50 (K562): 1.62 µM (inactive)
GI50 (OVCAR-8): 2.07 µM (inactive)
GI50 (SN12C): 3.21 µM (inactive)
GI50 (SNB-75): 9.84 µM (inactive)
GI50 (HCC 2998): 4.29 µM (inactive)
GI50 (DU-145): 4.17 µM (inactive)
GI50 (PC-3): 3.4 µM (inactive)
GI50 (RXF 393): 3.14 µM (inactive)
GI50 (OVCAR-5): 11.5 µM (inactive)
GI50 (HT-29): 2.19 µM (inactive)
GI50 (UO-31): 1.72 µM (inactive)
GI50 (SK-MEL-28): 3.08 µM (inactive)
GI50 (SK-OV-3): 8.02 µM (inactive)
GI50 (SF-539): 1.79 µM (inactive)
GI50 (HCT-116): 1.46 µM (inactive)
GI50 (ACHN): 1.87 µM (inactive)
GI50 (TK-10): 3.55 µM (inactive)
GI50 (UACC-257): 7.26 µM (inactive)
GI50 (COLO 205): 6.93 µM (inactive)
GI50 (LOX IMVI): 2.06 µM (inactive)
GI50 (NCI-H226): 20.9 µM (inactive)
GI50 (A498): 14.2 µM (inactive)
GI50 (MDA-MB-231): 8.41 µM (inactive)
GI50 (SK-MEL-5): 5.16 µM (inactive)
GI50 (NCI/ADR-RES): 6.84 µM (inactive)
GI50 (SF-295): 12.4 µM (inactive)
GI50 (SW-620): 3.31 µM (inactive)
GI50 (A549): 8.11 µM (inactive)
GI50 (T47D): 6.85 µM (inactive)
GI50 (MDA-N): 2.58 µM (inactive)
GI50 (Hs-578T): 5.64 µM (inactive)

S=c1[nH]c(=S)c2cc(Sc3ccc4[nH]c(=S)[nH]c(=S)c4c3)ccc2[nH]1
GI50 (RPMI-8226): 17.7 µM (inactive)
GI50 (U-251): 33 µM (inactive)
GI50 (NCI-H460): 45.5 µM (inactive)
GI50 (MDA-MB-435): 53 µM (inactive)
GI50 (EKVX): 42.2 µM (inactive)
GI50 (IGROV-1): 30 µM (inactive)
GI50 (HOP-92): 32.3 µM (inactive)
GI50 (SNB-19): 30.4 µM (inactive)
GI50 (HCT-15): 39.2 µM
GI50 (SR): 17.1 µM (inactive)
GI50 (KM12): 24 µM (inactive)
GI50 (BT-549): 31.2 µM (inactive)
GI50 (786-0): 21.5 µM (inactive)
GI50 (SK-MEL-2): 45.1 µM (inactive)
GI50 (MCF7): 59.6 µM (inactive)
GI50 (CCRF-CEM): 25.6 µM (inactive)
GI50 (SF-268): 24.2 µM (inactive)
GI50 (UACC-62): 20 µM (inactive)
GI50 (CAKI-1): 36.6 µM (inactive)
GI50 (OVCAR-3): 36.1 µM (inactive)
GI50 (M14): 66.7 µM (inactive)
GI50 (HL-60): 20.8 µM (inactive)
GI50 (OVCAR-4): 23.2 µM (inactive)
GI50 (MOLT-4): 46.8 µM (inactive)
GI50 (NCI-H23): 28 µM (inactive)
GI50 (NCI-H522): 34.8 µM (inactive)
GI50 (K562): 49.1 µM (inactive)
GI50 (OVCAR-8): 22 µM (inactive)
GI50 (SN12C): 40 µM (inactive)
GI50 (SNB-75): 19.5 µM (inactive)
GI50 (HCC 2998): 37.3 µM (inactive)
GI50 (DU-145): 62.4 µM (inactive)
GI50 (PC-3): 52.5 µM (inactive)
GI50 (RXF 393): 23.7 µM (inactive)
GI50 (OVCAR-5): > 100 µM (inactive)
GI50 (HT-29): 41 µM (inactive)
GI50 (Malme-3M): 55.3 µM (inactive)
GI50 (UO-31): 26.9 µM (inactive)
GI50 (SK-MEL-28): 53.8 µM (inactive)
GI50 (SK-OV-3): 24.3 µM (inactive)
GI50 (SF-539): 30.2 µM (inactive)
GI50 (HCT-116): 48.1 µM (inactive)
GI50 (ACHN): 35.2 µM (inactive)
GI50 (TK-10): 25.1 µM (inactive)
GI50 (UACC-257): 43.3 µM (inactive)
GI50 (COLO 205): 26.9 µM (inactive)
GI50 (NCI-H226): 20.4 µM (inactive)
GI50 (A498): 24.5 µM (inactive)
GI50 (MDA-MB-231): 59.6 µM (inactive)
GI50 (SK-MEL-5): 46.9 µM (inactive)
GI50 (NCI/ADR-RES): > 100 µM (inactive)
GI50 (SF-295): 22 µM (inactive)
GI50 (SW-620): 48.4 µM (inactive)
GI50 (A549): 59.7 µM (inactive)
GI50 (T47D): 50.5 µM (inactive)
GI50 (MDA-N): 40.9 µM (inactive)
GI50 (Hs-578T): 22 µM (inactive)
